“And” between values parts separate entries of the source, which are not always exact repeats. Identical values can stand only once. Inconclusive results and toxic doses are left out. Rule as the data show it: active = T/C of 150% or more; inactive = T/C below 125%.
System: L1210 leukemia ip in BDF1 mice, survival T/C
Test: NCI In Vivo Anticancer Drug Screen. Data for tumor model L1210 Leukemia (intraperitoneal) in B6D2F1 (BDF1) mice
Conditions: endpoint: mean survival time, higher = longer survival
Summary of the method: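 Antitumor effect is assessed in tumor-bearing animals. Survival in the compound arm is compared with a vehicle-dosed control arm and expressed as their quotient.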

[1] = dose: 100.0 mg/kg/injection, schedule: Q01DX009 (ip), vehicle: saline with Tween-80
[2] = dose: 200.0 mg/kg/injection, schedule: Q01DX001 (ip), vehicle: saline with Tween-80
[3] = dose: 200.0 mg/kg/injection, schedule: Q01DX009 (ip), vehicle: saline with Tween-80
[4] = dose: 400.0 mg/kg/injection, schedule: Q01DX001 (ip), vehicle: saline with Tween-80
[5] = dose: 400.0 mg/kg/injection, schedule: Q01DX009 (ip), vehicle: saline with Tween-80
[6] = dose: 400.0 mg/kg/injection, schedule: Q04DX002 (ip), vehicle: saline with Tween-80
[7] = dose: 50.0 mg/kg/injection, schedule: Q01DX001 (ip), vehicle: saline
[8] = dose: 100.0 mg/kg/injection, schedule: Q01DX001 (ip), vehicle: saline
[9] = dose: 200.0 mg/kg/injection, schedule: Q01DX001 (ip), vehicle: saline
[10] = dose: 400.0 mg/kg/injection, schedule: Q01DX001 (ip), vehicle: saline
[11] = dose: 100.0 mg/kg/injection, schedule: Q04DX003 (ip), vehicle: Klucel (hydroxypropylcellulose) (HPC)
[12] = dose: 200.0 mg/kg/injection, schedule: Q04DX003 (ip), vehicle: Klucel (hydroxypropylcellulose) (HPC)
[13] = dose: 400.0 mg/kg/injection, schedule: Q04DX003 (ip), vehicle: Klucel (hydroxypropylcellulose) (HPC)
[14] = dose: 100.0 mg/kg/injection, schedule: Q01DX009 (ip), vehicle: Klucel (hydroxypropylcellulose) (HPC)
[15] = dose: 200.0 mg/kg/injection, schedule: Q01DX009 (ip), vehicle: Klucel (hydroxypropylcellulose) (HPC)
[16] = dose: 400.0 mg/kg/injection, schedule: Q01DX009 (ip), vehicle: Klucel (hydroxypropylcellulose) (HPC)
[17] = dose: 25.0 mg/kg/injection, schedule: Q04DX003 (ip), vehicle: Klucel (hydroxypropylcellulose) (HPC)
[18] = dose: 50.0 mg/kg/injection, schedule: Q04DX003 (ip), vehicle: Klucel (hydroxypropylcellulose) (HPC)
[19] = dose: 100.0 mg/kg/injection, schedule: Q01DX001 (ip), vehicle: carboxymethylcellulose (CMC)
[20] = dose: 200.0 mg/kg/injection, schedule: Q01DX001 (ip), vehicle: carboxymethylcellulose (CMC)
[21] = dose: 400.0 mg/kg/injection, schedule: Q01DX001 (ip), vehicle: carboxymethylcellulose (CMC)
[22] = dose: 100.0 mg/kg/injection, schedule: Q04DX003 (ip), vehicle: saline
[23] = dose: 200.0 mg/kg/injection, schedule: Q04DX003 (ip), vehicle: saline
[24] = dose: 400.0 mg/kg/injection, schedule: Q04DX003 (ip), vehicle: saline

Measured: T/C

COc1ccc(Cl)cc1NC(=O)Oc1ccccn1
inactive: [1] 89 % of control | dose: 100.0 mg/kg/injection, schedule: Q04DX002 (ip), vehicle: saline with Tween-80 92 % of control and 97 % of control | dose: 100.0 mg/kg/injection, schedule: Q04DX003 (ip), vehicle: saline with Tween-80 95 % of control | [2] 89 % of control | [3] 90 % of control and 91 % of control | dose: 200.0 mg/kg/injection, schedule: Q04DX002 (ip), vehicle: saline with Tween-80 93 % of control and 102 % of control | dose: 200.0 mg/kg/injection, schedule: Q04DX003 (ip), vehicle: saline with Tween-80 101 % of control | [4] 92 % of control | [5] 96 % of control | [6] 95 % of control and 91 % of control | dose: 400.0 mg/kg/injection, schedule: Q04DX003 (ip), vehicle: saline with Tween-80 101 % of control

O=C(Cc1ccc2ccccc2c1)c1c[nH]c2ccccc12
inactive: [7] 102 % of control | [8] 102 % of control | [9] 98 % of control | [10] 93 % of control

CCN1N=Nc2cccc3cccc1c23
inactive: dose: 100.0 mg/kg/injection, schedule: Q04DX003 (ip), vehicle: acetone 99 % of control | dose: 200.0 mg/kg/injection, schedule: Q04DX003 (ip), vehicle: acetone 100 % of control

COc1ccc(NCc2ccccc2C#N)c(OC)c1
inactive: [11] 103 % of control | [12] 108 % of control | [13] 103 % of control

O=C(N/N=C/c1cc(Cl)ccc1[N+](=O)[O-])c1cccc2ccccc12
inactive: [9] 101 % of control | [10] 97 % of control

COC(=O)CCC#CC#CCCC(=O)OC
inactive: [14] 97 % of control | [11] 90 % of control | [15] 102 % of control | [12] 95 % of control | [16] 108 % of control | [13] 90 % of control

Cc1cccc(Cl)c1NC(=O)Oc1ccc2c(C)cc(=O)oc2c1
inactive: [14] 102 % of control | [15] 100 % of control | [16] 87 % of control

Clc1ccc(Cl)c(OCC2=NCCN2)c1
inactive: dose: 20.0 mg/kg/injection, schedule: Q04DX003 (ip), vehicle: Klucel (hydroxypropylcellulose) (HPC) 102 % of control | dose: 40.0 mg/kg/injection, schedule: Q04DX003 (ip), vehicle: Klucel (hydroxypropylcellulose) (HPC) 101 % of control

Clc1ccc(SCN2CCCCC2)cc1
inactive: [17] 93 % of control | [18] 95 % of control | [11] 93 % of control and 95 % of control

CCOC(=O)C1CN(Cc2ccccc2)C(=O)C1=O (centres undefined)
inactive: [7] 102 % of control | dose: 75.0 mg/kg/injection, schedule: Q01DX009 (ip), vehicle: saline 101 % of control | [8] 102 % of control | dose: 150.0 mg/kg/injection, schedule: Q01DX009 (ip), vehicle: saline 99 % of control | [9] 102 % of control | dose: 300.0 mg/kg/injection, schedule: Q01DX009 (ip), vehicle: saline 99 % of control | [10] 114 % of control

CCCCN(CCCC)N=Nc1c[nH]c(=O)[nH]c1=O
inactive: dose: 8.0 mg/kg/injection, schedule: Q01DX Z (ip), vehicle: carboxymethylcellulose (CMC) 114 % of control | dose: 16.0 mg/kg/injection, schedule: Q01DX Z (ip), vehicle: carboxymethylcellulose (CMC) 109 % of control

O=S(=O)(Cl)OO/C=C\OOS(=O)(=O)Cl
inactive: [8] 101 % of control | [9] 108 % of control

Cn1c(N)c(N=Nc2ccc(S(=O)(=O)Nc3ccccn3)cc2)c(=O)n(C)c1=O
inactive: [19] 98 % of control | [20] 93 % of control | [21] 93 % of control

O=C1C(OC(=O)c2ccccc2)=C(c2ccc(O)cc2)C(=O)C(OC(=O)c2ccccc2)=C1c1ccc(O)cc1
inactive: dose: 12.5 mg/kg/injection, schedule: Q01DX Z (ip), vehicle: carboxymethylcellulose (CMC) 94 % of control | dose: 25.0 mg/kg/injection, schedule: Q01DX Z (ip), vehicle: carboxymethylcellulose (CMC) 94 % of control | dose: 50.0 mg/kg/injection, schedule: Q01DX Z (ip), vehicle: carboxymethylcellulose (CMC) 105 % of control | dose: 100.0 mg/kg/injection, schedule: Q01DX Z (ip), vehicle: carboxymethylcellulose (CMC) 102 % of control

O=C(CCl)Nc1ncc([N+](=O)[O-])s1
inactive: dose: 12.5 mg/kg/injection, schedule: Q04DX003 (ip), vehicle: saline with Tween-80 94 % of control | dose: 25.0 mg/kg/injection, schedule: Q04DX003 (ip), vehicle: saline with Tween-80 91 % of control | dose: 50.0 mg/kg/injection, schedule: Q04DX003 (ip), vehicle: saline with Tween-80 87 % of control

CCCCc1csc(=S)[nH]1
inactive: dose: 100.0 mg/kg/injection, schedule: Q01DX001 (sc), vehicle: carboxymethylcellulose (CMC) 100 % of control | dose: 200.0 mg/kg/injection, schedule: Q01DX001 (sc), vehicle: carboxymethylcellulose (CMC) 113 % of control | dose: 400.0 mg/kg/injection, schedule: Q01DX001 (sc), vehicle: carboxymethylcellulose (CMC) 110 % of control

CC1CCCC/C1=N/NC(N)=O (centres undefined)
inactive: [14] 97 % of control | [22] 97 % of control | [23] 88 % of control | [24] 95 % of control

CC1(C)CCc2c(O)c(N=O)c3ccccc3c2O1
inactive: dose: 100.0 mg/kg/injection, schedule: Q01DX001 (ip), vehicle: saline with Tween-80 103 % of control | [2] 95 % of control | [4] 95 % of control

CS(=O)(=O)CCC(C#N)(CCS(C)(=O)=O)c1ccccc1
inactive: [11] 110 % of control | [12] 100 % of control | [13] 102 % of control

O=C(O)c1cc(Br)c(-c2c(Br)cc(C(=O)O)cc2[N+](=O)[O-])c([N+](=O)[O-])c1
inactive: dose: 50.0 mg/kg/injection, schedule: Q01DX001 (ip), vehicle: Klucel (hydroxypropylcellulose) (HPC) 95 % of control | dose: 100.0 mg/kg/injection, schedule: Q01DX001 (ip), vehicle: Klucel (hydroxypropylcellulose) (HPC) 106 % of control | dose: 200.0 mg/kg/injection, schedule: Q01DX001 (ip), vehicle: Klucel (hydroxypropylcellulose) (HPC) 95 % of control

CCOC(=O)C(=O)C(C#N)C(=O)OCC (centres undefined)
inactive: dose: 12.5 mg/kg/injection, schedule: Q04DX003 (ip), vehicle: Klucel (hydroxypropylcellulose) (HPC) 100 % of control | dose: 25.0 mg/kg/injection, schedule: Q01DX009 (ip), vehicle: saline 98 % of control | [17] 100 % of control | dose: 50.0 mg/kg/injection, schedule: Q01DX009 (ip), vehicle: saline 98 % of control | [18] 91 % of control | dose: 100.0 mg/kg/injection, schedule: Q01DX009 (ip), vehicle: saline 95 % of control | [11] 97 % of control

Cc1[nH]c2ccc(N(C)C)cc2c(=O)c1Cc1c(C)[nH]c2ccc(N(C)C)cc2c1=O
inactive: [1] 94 % of control | [3] 95 % of control | [5] 92 % of control

COc1ccc(OC)c(NC(=O)C2CC2)c1
inactive: [22] 94 % of control | [23] 99 % of control | [24] 103 % of control

CCOC(=O)Nc1cc(NC(c2ccccc2)c2ccccc2)c([N+](=O)[O-])c(NC/C(C)=N/NC(N)=O)n1
inactive: [19] 95 % of control | [20] 93 % of control | [21] 89 % of control

CC(C)=CCNC(=O)NS(=O)(=O)c1ccc(Cl)cc1
inactive: [11] 103 % of control | [12] 103 % of control | [13] 100 % of control

CCOC(=O)C(C(C)=O)C(c1ccc2c(c1)OCO2)C(C(C)=O)C(=O)O (centres undefined)
inactive: dose: 25.6 mg/kg/injection, schedule: Q04DX002 (ip), vehicle: saline with Tween-80 100 % of control | dose: 64.0 mg/kg/injection, schedule: Q04DX002 (ip), vehicle: saline with Tween-80 96 % of control | dose: 160.0 mg/kg/injection, schedule: Q04DX002 (ip), vehicle: saline with Tween-80 103 % of control | [6] 107 % of control

CCOC/C=C\c1ccccc1
inactive: dose: 50.0 mg/kg/injection, schedule: Q01DX009 (ip), vehicle: saline with Tween-80 95 % of control | [1] 92 % of control | [3] 92 % of control

Source: PubChem BioAssay AID248 (DTP/NCI, 2004)
